The text below walks through data of patent publication US9302999B2, “Substituted triazoles as herbicides” (E. I. DU PONT DE NEMOURS AND COMPANY, priority 2012, dated 2016).

The structures appear in SMILES notation.

Test [1] concerns barnyardgrass (Echinochloa crus-galli). As to the kind of experiment: Test C pre-/postemergence: barnyardgrass. Particulars: scale 0 to 100, 0 no effect, 100 complete control. The test is classed as in vivo.
The test system of test [2] is Oilseed Rape. The experiment in a line: Test C postemergence: oilseed rape. The conditions noted are these: scale 0 to 100 (0 no effect, 100 complete control). The test is classed as in vivo. The procedure, abridged: (§1)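 Pot-grown plants in peat/vermiculite medium sprayed postemergence at 2–18 cm height (1- to 4-leaf stage). Kept in greenhouse 13 to 15 days, then visually rated against untreated controls on a 0–100 scale (0 = no effect, 100 = complete control).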

Test [3] deals with Oilseed Rape. As to the kind of experiment: Test C preemergence: oilseed rape. The test is classed as in vivo, Brassica napus. The conditions noted are these: 125 g ai/ha, scale 0 to 100, 0 no effect, 100 complete control.
For test [4], the system named is Waterhemp. As to the kind of experiment: Test C postemergence: waterhemp. The test is classed as in vivo, Amaranthus rudis.
Test [5] relates to Waterhemp. As to the kind of experiment: Test C pre-/postemergence: waterhemp. It is filed as in vivo. The conditions noted are these: Postemergence. The source says:
(§2) Seeds of plant species selected from blackgrass (Alopecurus myosuroides), bromegrass, downy (downy bromegrass, Bromus tectorum), foxtail, green (green foxtail, Setaria viridis), ryegrass, Italian (Italian ryegrass, Lolium multiflorum), winter wheat (Triticum aestivum), wild oat (Avena fatua), galium (catchweed bedstraw, Galium aparine), bermudagrass (Cynodon dactylon), surinam grass (Brachiaria decumbens), cocklebur (common cocklebur, Xanthium strumarium), corn (Zea mays), large crabgrass (Digitaria sanguinalis), woolly cupgrass (Eriochloa villosa), foxtail, giant (giant foxtail, Setaria faberii), goosegrass (Eleusine indica), johnsongrass (Sorghum halepense), kochia (Kochia scoparia), lambsquarters (Chenopodium album), morningglory (Ipomoea coccinea), nightshade (eastern black nightshade, Solanum ptycanthum), nutsedge, yellow (yellow nutsedge, Cyperus esculentus), pigweed (Amaranthus retroflexus), ragweed (common ragweed, Ambrosia elation), soybean (Glycine max), common (oilseed) sunflower (Helianthus annuus), Russian thistle (Salsola kali) and velvetleaf (Abutilon theophrasti) were planted into a blend of loam soil and sand and treated preemergence with test chemicals formulated in a non-phytotoxic solvent mixture which included a surfactant.
(§3) At the same time, plants selected from these crop and weed species and also barley (winter barley, Hordeum vulgare), canarygrass (Phalaris minor), chickweed (common chickweed, Stellaria media) windgrass (Apera spica-venti) and deadnettle (henbit deadnettle, Lamium amplexicaule) were planted in pots containing Redi-Earth® planting medium (Scotts Company, 14111 Scottslawn Road, Marysville, Ohio 43041) comprising spaghnum peat moss, vermiculite, wetting agent and starter nutrients and treated with postemergence applications of test chemicals formulated in the same manner. Plants ranged in height from 2 to 18 cm (1- to 4-leaf stage) for postemergence treatments.
(§4) Treated plants and controls were maintained in a greenhouse for 13 to 15 days, after which time all species were compared to controls and visually evaluated. Plant response ratings, summarized in Table C, are based on a scale of 0 to 100 where 0 is no effect and 100 is complete control. A dash (-) response means no test result.

Another test has as its system Barnyardgrass. The experiment in a line: Test C postemergence: barnyardgrass. The test is classed as in vivo, Echinochloa crus-galli.
Description: as §3, §4

In test [6] the test system is Oilseed Rape. As to the kind of experiment: Test C postemergence: oilseed rape. It is filed as in vivo, Brassica napus.
Description: as §2, §3, §4

In test [7] the test system is Oilseed Rape. As to the kind of experiment: Test C preemergence: oilseed rape. It is filed as in vivo. The conditions noted are these: scale of 0 to 100, 0 is no effect, 100 is complete control.
For test [8], the system named is Waterhemp. The experiment in a line: Test C postemergence: waterhemp. It is filed as in vivo. Particulars: scale 0 to 100 (0 no effect, 100 complete control). An outline of the steps: as §1
[9] abbreviates: 125 g ai/ha, scale 0 to 100, 0 no effect, 100 complete control.
Setting [10] is: 250 g ai/ha, scale 0 to 100 (0 no effect, 100 complete control).
Where [11] appears, read: 31 g ai/ha, scale 0 to 100 (0 no effect, 100 complete control).
The mark [12] stands for this setting: 62 g ai/ha, scale 0 to 100 (0 no effect, 100 complete control).

In the case of `CCOc1nn(-c2ccc(Cl)cc2)nc1Cc1ccnc(C(F)(F)F)c1` [Compound 188], the “Plant response rating, Barnyardgrass” value was 100 in test [1] (Preemergence, 250 g ai/ha); 75 in the test on Barnyardgrass (setting [11]); 95 in the test on Barnyardgrass (setting [12]); 100 in the test on Barnyardgrass (250 g ai/ha, scale 0 to 100). The “Plant response rating, Oilseed Rape” value in the test with Oilseed Rape [2] (62 g ai/ha) stood at 90; with Oilseed Rape [3], 100; with Oilseed Rape [6] (setting [9]), 90; in the test on Oilseed Rape [6] (setting [10]) it was 95; with Oilseed Rape [7] (62 g ai/ha), 70. The “Plant response rating, Waterhemp” value with Waterhemp [4] (setting [9]) is reported as 100; in the test with Waterhemp [4] (setting [10]), 100; in the test on Waterhemp [5] (setting [11]) it was 70; in the test with Waterhemp [8] (62 g ai/ha), 100.
Consider `CCc1nn(-c2ccc(C(F)(F)F)cc2)nc1Oc1ccnc(C(F)(F)F)c1` [Compound 169], for which the “Plant response rating, Barnyardgrass” value was 100 in [1] (Preemergence, 250 g ai/ha); 15 with Barnyardgrass (setting [11]); 25 in the test on Barnyardgrass (setting [12]); 85 in the test with Barnyardgrass (250 g ai/ha, scale 0 to 100). The “Plant response rating, Oilseed Rape” value in the test with Oilseed Rape [2] (62 g ai/ha) came to 40; in the test on Oilseed Rape [3] it was 100; in the test with Oilseed Rape [6] (setting [9]), 40; in the test on Oilseed Rape [6] (setting [10]), 60; with Oilseed Rape [7] (62 g ai/ha), 98. In addition, the “Plant response rating, Waterhemp” value with Waterhemp [4] (setting [9]) amounted to 80; with Waterhemp [4] (setting [10]), 95; with Waterhemp [5] (setting [11]) it was 75; in the test with Waterhemp [8] (62 g ai/ha) it was 80.
`CCCc1nn(-c2ccc(F)cc2)nc1Oc1ccnc(C(F)(F)F)c1` [Compound 168]: the “Plant response rating, Barnyardgrass” value is 100 in test [1] (Preemergence, 250 g ai/ha); 40 in the test on Barnyardgrass (setting [11]); 75 in the test on Barnyardgrass (setting [12]); 95 in the test on Barnyardgrass (250 g ai/ha, scale 0 to 100). Also, the “Plant response rating, Oilseed Rape” value in the test on Oilseed Rape [2] (62 g ai/ha) is 70; with Oilseed Rape [3], 100; with Oilseed Rape [6] (setting [9]) it was 90; with Oilseed Rape [6] (setting [10]) it was 95; in the test on Oilseed Rape [7] (62 g ai/ha), 100. The “Plant response rating, Waterhemp” value in the test on Waterhemp [4] (setting [9]) was 95; in the test on Waterhemp [4] (setting [10]), 95; with Waterhemp [5] (setting [11]) it was 80; with Waterhemp [8] (62 g ai/ha), 90.
Take `FCc1nn(-c2ccc(F)cc2)nc1Oc1ccnc(C(F)(F)F)c1` [Compound 160]: the “Plant response rating, Barnyardgrass” value in test [1] (Postemergence, 16 g ai/ha) stood at 15; in the test on Barnyardgrass (setting [11]), 20; in the test with Barnyardgrass (setting [12]) it was 30. Besides, the “Plant response rating, Oilseed Rape” value in the test on Oilseed Rape [2] (31 g ai/ha) is 95; in the test with Oilseed Rape [2] (62 g ai/ha) it was 95; in the test with Oilseed Rape [3], 80; in the test on Oilseed Rape [6] (setting [9]), 95; with Oilseed Rape [7] (31 g ai/ha) it was 5; in the test with Oilseed Rape [7] (62 g ai/ha) it was 80. The “Plant response rating, Waterhemp” value in the test on Waterhemp [4] (setting [9]) came to 98; in the test with Waterhemp [5] (16 g ai/ha, scale 0 to 100, 0 no effect, 100 complete control) it was 95; in the test on Waterhemp [8] (31 g ai/ha), 95; with Waterhemp [8] (62 g ai/ha) it was 98.
